{
  "source": "patent US6086915A",
  "about": "“Compositions and methods of adjusting steroid hormone metabolism through phytochemicals” (priority 1998, dated 2000)",
  "key": {"[1]": {"settings": "an hour after oral dose of I3C; cited from earlier work"}, "CYP": {"test_system": "CYP", "settings": "cited from earlier work"}, "[2]": {"assay": "solubility in water and in oil", "type": "physicochemical"}, "[3]": {"settings": "cited from earlier work"}, "[4]": {"test_system": "2-hydroxylation of estradiol", "settings": "cited from earlier work; for shift of estrogen metabolism: I3C, oral"}, "CYP 1A1/1A2 and 1B1": {"test_system": "CYP 1A1/1A2 and 1B1", "assay": "Example 10: immunoblot of CYP enzyme induction in uterine and hepatic microsomes after feeding", "type": "in vivo, Sprague-Dawley female rats", "protocol": "CYP enzyme induction was again used as a bio-marker of bioavailability.\nThe study compared the enzyme induction resulting from exposure of female rats to crystalline DIM, I3C and processed DIM at relevant doses in the feed. Levels of CYP 1A1/1A2 and 1B1 were measured in uterine and hepatic microsomes as a surrogate end point of uptake and bioavailability.\nA total of 30 Sprague-Dawley female rats weighing approximately 200 gms were treated as follows:\n1. 5-7 day acclimatization in group cages, feeding on AIN76A minimally inducing diet.\n2. 3 days feeding on same feed mixed with 7 different combinations of dietary indoles.\n3. Sacrifice of animals on about day 10. Harvesting of livers and uteri following perfusion of abdominal organs to remove blood.\n4. Processing of organs to obtain CYP enzyme rich microsomal fraction.\n5. Immunoblot determination of levels of specific CYP enzymes by standard means using existing CYP antibodies.\nMicrosomes from the following groups were assayed:\nOrgan weight was obtained at necropsy. Specific CYP enzyme levels were compared based on standardized densitometry units. […] Results expressed as densitometry units indicating uptake of indole and degree of enzyme induction are listed according to the above groups: […]"}, "[5]": {"test_system": "2-hydroxylation of estradiol", "settings": "animals; cited from earlier work"}, "CYP 1A1/1A2 [6]": {"test_system": "CYP 1A1/1A2", "settings": "mice fed I3C; cited from earlier work"}, "CYP 1A1/1A2 [7]": {"test_system": "CYP 1A1/1A2", "settings": "rats fed I3C; cited from earlier work"}, "[8]": {"test_system": "CYP enzymes in colonic epithelium", "settings": "in diet, mixed with feed; cited from earlier work"}, "Human Cancer Cells": {"test_system": "Human Cancer Cells", "settings": "cell culture; cited from earlier work"}, "p-glycoprotein": {"test_system": "p-glycoprotein", "settings": "cited from earlier work"}, "[9]": {"assay": "DIM stability in simulated gastric environment and shelf-life conditions", "type": "physicochemical", "excerpt": "Therefore the need exists for a bioavailable formulation of DIM as well as related dimers and trimers, since hydrophobic substances like DIM are poorly absorbed."}, "cultured liver cells": {"test_system": "cultured liver cells", "settings": "added directly to cultured liver cells; cited from earlier work"}, "[10]": {"test_system": "hepatic microsomal metabolism of estrogen", "settings": "cited from earlier work"}, "hepatic enzyme": {"test_system": "hepatic enzyme", "settings": "one mg/kg of DIM in corn oil, fed; cited from earlier work"}, "[11]": {"test_system": "total cytochrome (CYP) enzymes", "assay": "Example 9: total CYP in liver microsomes of rats fed crystalline or processed DIM (Western Blots)", "type": "in vivo, Sprague Dawley rats", "settings": "males; 100 mg per kg gavage, 3 consecutive days"}, "[12]": {"settings": "oil, organic solvent or mixture, read-out: solubility in oil"}, "[13]": {"settings": "water, read-out: solubility in water"}},
  "note": "“Also recorded” adds a separate entry of the source. Where two headings read alike, the source gives them in different places.",
  "data": [
    {"smiles": "c1ccc2c(Cc3[nH]c4ccccc4c3Cc3c[nH]c4ccccc34)c[nH]c2c1", "note": "[2,3-bis[3-indolylmethyl]indole]", "values": [
      {"measurement": "detection in gastric contents and stomach tissue", "setting": "[1]", "result": "detected in gastric contents and stomach tissue"}
    ]},
    {"smiles": "O=c1cc(-c2ccccc2)oc2cc(O)cc(O)c12", "note": "[chrysin, 5,7-Dihydroxyflavone, reference compound]", "values": [
      {"measurement": "CYP-related effects in rat livers", "setting": "CYP; two weeks oral intake at 300 mg/kg of body weight", "result": "no CYP-related effects were noted in rat livers"},
      {"measurement": "solubility", "setting": "[2]; [12]", "result": 50, "unit": "µg/mL"},
      {"measurement": "solubility", "setting": "[2]; [13]", "result": 0.7, "unit": "µg/mL"}
    ]},
    {"smiles": "OCc1c[nH]c2ccccc12", "note": "[I3C, indole-3-carbinol]", "values": [
      {"measurement": "loss of the original I3C", "setting": "[3]; aging conditions simulating a one month period, 43800 min", "result": "approximately 50%"},
      {"measurement": "stability", "setting": "[3]; heat, light, moisture, or acidic environments", "result": "unstable and subject to spontaneous breakdown"},
      {"measurement": "minimum dose", "setting": "[4]; I3C dietary supplement", "result": 300, "unit": "mg per person per day"},
      {"measurement": "shift of estrogen metabolism", "setting": "[4]", "result": "beneficially shift estrogen metabolism to favor 20 H estrone"},
      {"measurement": "shift of estrogen metabolism", "setting": "[4]; listed as indole-3-carbinol", "result": "successful in shifting estrogen metabolism to favor 20 H estrone"},
      {"measurement": "2-hydroxylation of estradiol", "setting": "[4]; humans", "result": "increase the 2-hydroxylation of estradiol"},
      {"measurement": "CYP enzyme induction, Densitometry Units", "setting": "CYP 1A1/1A2 and 1B1; I3C high 25 mg/kg/day, in feed 3 days", "result": 5.1, "unit": "Densitometry Units"},
      {"measurement": "CYP enzyme induction, Densitometry Units", "setting": "CYP 1A1/1A2 and 1B1; I3C low 5 mg/kg/day, in feed 3 days", "result": 0, "unit": "Densitometry Units"},
      {"measurement": "2-hydroxylation of estradiol", "setting": "[5]", "result": "increase the 2-hydroxylation of estradiol"},
      {"measurement": "hepatic and intestinal levels of CYP 1A1/1A2 enzyme", "setting": "CYP 1A1/1A2 [6]", "result": "increased"},
      {"measurement": "hepatic and intestinal levels of CYP 1A1/1A2 enzyme", "setting": "CYP 1A1/1A2 [7]", "result": "increased"},
      {"measurement": "CYP enzyme induction in colonic epithelium", "setting": "[8]", "result": "powerful inductive activity"}
    ]},
    {"smiles": "Clc1cc2c(cc1Cl)Oc1cc(Cl)c(Cl)cc1O2", "note": "[TCDD, 2,3,7,8-Tetrachlorodibenzo-P-Dioxin]", "values": [
      {"measurement": "CYP enzyme induction, Densitometry Units", "setting": "CYP 1A1/1A2 and 1B1; positive control, by gavage", "result": 251.7, "unit": "Densitometry Units"}
    ]},
    {"smiles": "COc1ccc(-c2cc(=O)c3c(OC)c(OC)c(OC)c(OC)c3o2)cc1", "note": "[Tangeretin, 5,6,7,8,4'-pentamethoxyflavone]", "values": [
      {"measurement": "CYP induction", "setting": "CYP; dietary intake", "result": "associated with CYP induction"}
    ]},
    {"smiles": "c1ccc2c(Cc3c[nH]c4ccccc34)c[nH]c2c1", "note": "[DIM, 3,3'-diindolylmethane]", "values": [
      {"measurement": "apoptosis", "setting": "Human Cancer Cells", "result": "able to support the cancer preventive behavior of apoptosis"},
      {"measurement": "p-glycoprotein function", "setting": "p-glycoprotein; cell culture and in vivo", "result": "Inhibition of the function of the p-glycoprotein"},
      {"measurement": "effectiveness of chemotherapy drugs in multiply resistant cancer cells", "setting": "p-glycoprotein", "result": "increase the effectiveness of chemotherapy drugs in multiply resistant cancer cells; also recorded: increased effectiveness of chemotherapeutic compounds in multiply resistant cancer cells"},
      {"measurement": "interaction with p-glycoprotein membrane structure", "setting": "p-glycoprotein; molecular probe", "result": "direct interaction of DIM with the p-glycoprotein membrane structure"},
      {"measurement": "shelf stability", "setting": "[9]; accelerated shelf-life conditions", "result": "shelf stable"},
      {"measurement": "indolocarbazole generation", "setting": "[9]; digestion, gastric acid, or accelerated shelf-life conditions", "result": "No indolocarbazole is generated"},
      {"measurement": "stability during passage through a simulated gastric environment", "setting": "[9]; simulated gastric environment", "result": "entirely stable"},
      {"measurement": "CYP enzyme induction, Densitometry Units", "setting": "CYP 1A1/1A2 and 1B1; DIM high 10 mg/kg/day, crystalline, in feed 3 days", "result": 0, "unit": "Densitometry Units"},
      {"measurement": "CYP enzyme induction, Densitometry Units", "setting": "CYP 1A1/1A2 and 1B1; DIM low 2 mg/kg/day, crystalline, in feed 3 days", "result": 0, "unit": "Densitometry Units"},
      {"measurement": "CYP enzyme induction", "setting": "cultured liver cells", "result": "powerful CYP enzyme-inducer"},
      {"measurement": "dose below which activity is lost", "setting": "[10]; DIM in the diet / in sesame oil", "result": "below 5 mg per kg"},
      {"measurement": "potency in influencing estrogen metabolism, DIM over I3C", "setting": "[10]; fed to rats", "result": "increased potency of DIM over I3C"},
      {"measurement": "lowest dose with enzyme inductive effects", "setting": "[10]; injected intraperitoneally", "result": 0.3, "unit": "mg per kg"},
      {"measurement": "detection in gastric contents and stomach tissue", "setting": "[1]", "result": "detected in gastric contents and stomach tissue"},
      {"measurement": "hepatic enzyme induction", "setting": "hepatic enzyme", "result": "no hepatic enzyme induction"},
      {"measurement": "Total CYP (nmol/mg protein), Percent of Control", "setting": "[11]", "result": 140, "unit": "%"},
      {"measurement": "solubility", "setting": "[2]; [12]", "result": 100, "unit": "µg/mL"},
      {"measurement": "solubility", "setting": "[2]; [13]", "result": 2.5, "unit": "µg/mL"},
      {"measurement": "CYP enzyme induction in colonic epithelium", "setting": "[8]", "result": "failed to induce CYP enzymes in colonic epithelium"}
    ]}
  ]
}
